In EP4737450A1 (Longwood Pharmaceuticals (Hangzhou) Co., Ltd, priority 2023, dated 2025):
Read-outs that look alike come from different tables or passages of the source.

How the values were obtained:
FXIa = FXIa (Homo sapiens, UniProt P03951); assay: Inhibitory activity against FXIa in vitro (biochemical assay); conditions: values given in µM
Procedure: Test Example 1. Test of the inhibitory activities of the compounds of the present invention against plasma kallikrein (PKa), KLK1 and FXIa in vitro.
PKK (R & D, Cat # 2497-SE) and Pro-Phe-Arg-AMC (Nanjing Peptide, Cat # NJP23946) solutions were prepared in reaction buffer (50 mM Tris-HCl, pH 7.5, 250 mM NaCl). The final concentrations of enzyme protein and Pro-Phe-Arg-AMC in the reaction mixture were 10 nM and 60 µM, respectively. The starting concentration of the positive reference substance Avoralstat was 100 nM, 3-fold dilution, 10 + 0 dose. 0.05 µL of compound in 100% DMSO was delivered to a 384-well plate by an acoustic liquid delivery technique (Echo665; nanoliter range). Compound duplex test. 5 µL of 2 × enzyme solution was transferred to a 384 reaction plate and centrifuged at 1000 rpm for 1 minute, incubated at 25°C for 15 minutes; 5 µL of 2 × Pro-Phe-Arg-AMC solution was transferred to a 384 reaction plate, centrifuged at 1000 rpm for 1 minute, incubated at 25°C for 3 hours. […] IC50 values and nonlinear regression curve fitting were obtained using GraphPad Prism software.

plasma kallikrein (PKa) = target: T1, plasma kallikrein (PKa) (Homo sapiens, UniProt P03952); assay: Inhibitory activity against plasma kallikrein in vitro (fluorescence intensity enzyme assay, Pro-Phe-Arg-AMC substrate); assay type: biochemical
T1 construct: purchased R & D 2497-SE
T1 sequence (P03952 391-638 limits assumed): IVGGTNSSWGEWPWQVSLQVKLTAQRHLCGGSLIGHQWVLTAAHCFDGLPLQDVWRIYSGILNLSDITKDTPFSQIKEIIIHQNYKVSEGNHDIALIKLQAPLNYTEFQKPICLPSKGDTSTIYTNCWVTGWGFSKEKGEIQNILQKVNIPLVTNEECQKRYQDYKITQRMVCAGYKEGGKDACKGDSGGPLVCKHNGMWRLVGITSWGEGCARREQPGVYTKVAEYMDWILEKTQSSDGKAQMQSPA
T1 sequence (P03952 20-390 partner limits assumed): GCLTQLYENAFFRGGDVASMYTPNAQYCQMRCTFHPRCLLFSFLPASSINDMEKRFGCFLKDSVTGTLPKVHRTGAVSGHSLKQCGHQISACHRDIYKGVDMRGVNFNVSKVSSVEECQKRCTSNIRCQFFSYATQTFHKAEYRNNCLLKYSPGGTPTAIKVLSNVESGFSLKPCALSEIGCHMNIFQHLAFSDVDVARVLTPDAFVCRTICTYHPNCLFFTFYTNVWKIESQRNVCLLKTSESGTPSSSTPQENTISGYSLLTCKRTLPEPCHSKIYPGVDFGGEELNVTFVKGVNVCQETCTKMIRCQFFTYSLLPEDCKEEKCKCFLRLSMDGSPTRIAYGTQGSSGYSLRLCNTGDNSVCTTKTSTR
Procedure: Test of the inhibitory activities of the compounds of the present invention against plasma kallikrein (PKa), KLK1 and FXIa in vitro.
The final concentrations of enzyme protein and Pro-Phe-Arg-AMC in the reaction mixture were 10 nM and 60 µM, respectively. The starting concentration of the positive reference substance Avoralstat was 100 nM, 3-fold dilution, 10 + 0 dose. 0.05 µL of compound in 100% DMSO was delivered to a 384-well plate by an acoustic liquid delivery technique (Echo665; nanoliter range). Compound duplex test. […] IC50 values and nonlinear regression curve fitting were obtained using GraphPad Prism software.

KLK1 = KLK1 (Homo sapiens, UniProt P06870); assay: Inhibitory activity against KLK1 in vitro (biochemical assay); conditions: values given in µM
Sequence of KLK1 (P06870 25-262, species assumed): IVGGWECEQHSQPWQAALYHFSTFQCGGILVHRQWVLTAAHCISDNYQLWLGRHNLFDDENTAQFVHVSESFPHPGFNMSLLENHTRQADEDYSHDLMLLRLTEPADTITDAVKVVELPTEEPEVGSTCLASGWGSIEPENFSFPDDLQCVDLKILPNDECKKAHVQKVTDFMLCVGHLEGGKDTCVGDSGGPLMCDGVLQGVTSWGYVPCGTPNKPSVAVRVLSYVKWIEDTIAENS
Excerpt: Test Example 1. Test of the inhibitory activities of the compounds of the present invention against plasma kallikrein (PKa), KLK1 and FXIa in vitro. […]

[1] = plasma kallikrein enzyme assay, Pro-Phe-Arg-AMC substrate, read-out: PKa IC50

Sequence of FXIa (P03951 388-625 limits assumed): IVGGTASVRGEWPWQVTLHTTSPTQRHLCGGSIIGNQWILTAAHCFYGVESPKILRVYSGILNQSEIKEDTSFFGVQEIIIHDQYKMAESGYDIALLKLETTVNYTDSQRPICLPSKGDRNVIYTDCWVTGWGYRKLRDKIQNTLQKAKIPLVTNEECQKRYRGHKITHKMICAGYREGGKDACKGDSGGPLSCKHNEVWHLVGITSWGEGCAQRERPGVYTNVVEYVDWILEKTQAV
Sequence of FXIa (P03951 19-387 partner limits assumed): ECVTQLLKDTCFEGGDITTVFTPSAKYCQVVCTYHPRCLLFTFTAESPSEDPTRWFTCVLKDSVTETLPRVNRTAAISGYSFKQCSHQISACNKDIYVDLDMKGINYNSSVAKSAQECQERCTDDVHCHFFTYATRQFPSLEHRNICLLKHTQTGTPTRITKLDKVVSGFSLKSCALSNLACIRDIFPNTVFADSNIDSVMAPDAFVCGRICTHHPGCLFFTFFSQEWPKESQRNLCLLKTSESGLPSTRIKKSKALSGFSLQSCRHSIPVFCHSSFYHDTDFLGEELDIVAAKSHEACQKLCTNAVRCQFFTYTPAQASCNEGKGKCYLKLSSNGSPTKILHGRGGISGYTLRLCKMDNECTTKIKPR

Molecule	IC50 (plasma kallikrein (PKa); [1]) [nM]	further results
Cc1cc(N)nc(C)c1CNC(=O)c1cnn(Cc2ccc(N3CC4C(C3)C4(F)F)cc2C#N)c1 (centres unmarked) [Compound 20]		IC50 (FXIa): > 10 µM; IC50 (plasma kallikrein (PKa); read-out: PKa IC50): 0.155 nM
COCc1nn(Cc2ccc(Cn3ccccc3=O)cc2)cc1C(=O)NCc1ncc2c(c1F)N(C)CC2 [Compound 146]		IC50 (FXIa): > 10 µM; IC50 (KLK1): > 10 µM
CNC(=N)c1ccc(CNC(=O)c2cnn(Cc3ccc(CC4CC4)cc3)c2)cc1 [Compound 271]	855	
O=C(NCc1nccc(C2CC2)c1F)c1cn(Cc2ccc(Cn3ccccc3=O)cc2)nc1N1CC(F)(F)C1 [Compound 272]	42	
O=C(NCc1nccc(NC2CCC2)c1F)c1cn(Cc2ccc(Cn3ccccc3=O)cc2)nc1C1COC1 [Compound 273]	> 1000	
N=C(N)c1ccc(CNC(=O)c2cn(Cc3ccc(CC4CC4)cc3)nc2C(F)(F)F)c(F)c1 [Compound 275]	56	
O=C(NCc1nccc(NCC2CC2)c1F)c1cn(Cc2ccc(Cn3ccccc3=O)cc2)nc1C1COC1 [Compound 276]	> 1000	
O=C(NCc1nccc(NCC2CC2)c1F)c1cn(Cc2ccc(Cn3ccccc3=O)cc2)nc1N1CC(F)(F)C1 [Compound 277]	> 1000	
O=C(NCc1nccc(NC2CCC2)c1F)c1cn(Cc2ccc(Cn3ccccc3=O)cc2)nc1N1CC(F)(F)C1 [Compound 278]	> 1000	
CC(C)CNc1ccnc(CNC(=O)c2cn(Cc3ccc(Cn4ccccc4=O)cc3)nc2N2CC(F)(F)C2)c1F [Compound 279]	> 1000	
Cc1cc(N)nc(C)c1CNC(=O)c1cnn(Cc2ccc(CC3CC3)cc2)c1 [Compound 280]	2.64	
COc1ccc(F)c(CNC(=O)c2cn(Cc3ccc(Cn4cc(F)ccc4=O)cc3)nc2N2CC(F)(F)C2)c1F [Compound 281]	24.9	
COc1ccnc(COC(=O)c2cn(Cc3ccc(Cn4cc(F)ccc4=O)cc3)nc2NC2(C)COC2)c1F [Compound 284]	3.41	
COc1ccc(F)c(CNC(=O)c2cn(Cc3ccc(Cn4cc(F)ccc4=O)cc3)nc2COCC2(C)COC2)c1F [Compound 285]	10.5	
COc1ccnc(CNC(=O)c2cn(Cc3ccc(Cn4cc(F)ccc4=O)cc3)nc2COCC2(C)COC2)c1F [Compound 286]	10.8	
COc1ccnc(CNC(=O)c2cn(Cc3ccc(Cn4ccccc4=O)cc3)nc2N2CC3(COC3)C2)c1F [Compound 288]	11.5	
COc1ccc(Cl)c(CNC(=O)c2cn(Cc3ccc(Cn4ccccc4=O)cc3)nc2N2CC(F)(F)C2)c1F [Compound 290]	4.62	
COc1ccc(F)c(CNC(=O)c2cn(Cc3ccc(Cn4ccccc4=O)cc3)nc2N2CC(C)(OC)C2)c1F [Compound 291]	5.9	
COc1ccnc(CNC(=O)c2cn(Cc3ccc(Cn4ccccc4=O)cc3)nc2COC2CCCOC2)c1F (centres unmarked) [Compound 294]	10.6	

Molecule	IC50 (plasma kallikrein (PKa); [1]) [nM]	further results
COc1ccnc(CNC(=O)c2cn(Cc3ccc(Cn4ccccc4=O)cc3)nc2COC2CCOCC2)c1F [Compound 295]	16.3	
COc1ccnc(CNC(=O)c2cn(Cc3ccc(Cn4ccccc4=O)cc3)nc2NC2(C)COC2)c1F [Compound 297]	2.83	
COc1ccc(F)c(CNC(=O)c2cn(Cc3ccc(Cn4cc(F)ccc4=O)cc3)nc2N[C@H]2CCOC2)c1F [Compound 298]	2.79	
COc1ccnc(CNC(=O)c2cn(Cc3ccc(Cn4ccccc4=O)cc3)nc2COCC(C)(C)OC)c1F [Compound 299]	11.2	
COc1ccc(F)c(CNC(=O)c2cn(Cc3ccc(Cn4ccccc4=O)cc3)nc2NC2(C)COC2)c1F [Compound 300]	1.94	
COc1ccnc(CNC(=O)c2cn(Cc3ccc(Cn4ccccc4=O)cc3)nc2-c2cnccn2)c1F [Compound 301]	24.9	
COc1ccnc(CNC(=O)c2cn(Cc3ccc(Cn4ccccc4=O)cc3)nc2-c2cncnc2)c1F [Compound 304]	7.24	
COc1ccnc(CNC(=O)c2cn(Cc3ccc(Cn4ccccc4=O)cc3)nc2CN2C(=O)CC(C)(C)CC2=O)c1F [Compound 305]	12.4	
COCC1CN(c2nn(Cc3ccc(Cn4ccccc4=O)cc3)cc2C(=O)NCc2nccc(OC)c2F)C1 [Compound 306]	12.8	
COc1ccnc(CNC(=O)c2cn(Cc3ccc(Cn4ccccc4=O)cc3)nc2N2CC(OC(C)C)C2)c1F [Compound 307]	4.57	
COc1ccnc(CNC(=O)c2cn(Cc3ccc(Cn4ccccc4=O)cc3)nc2CN2C(=O)CCCC2=O)c1F [Compound 308]	3.49	
COc1ccnc(CNC(=O)c2cn(Cc3ccc(Cn4ccccc4=O)cc3)nc2CN2C[C@H](C)O[C@@H](C)C2)c1F [Compound 309]	273	
CC(C)Cc1ccc(Cn2cc(C(=O)NCc3ccc(C(=N)N)cc3)cn2)cc1 [Compound 312]	2	
CN(C)c1ccnc(CNC(=O)c2cn(Cc3ccc(Cn4ccccc4=O)cc3)nc2N2CC3(C2)OCC3(C)C)c1F [Compound 313]	3.24	
Cc1cc(C(=N)N)nc(C)c1CNC(=O)c1cnn(Cc2ccc(CC3CC3)cc2)c1 [Compound 323]	65.6	
O=C(NCc1nccc2[nH]ccc12)c1cn(Cc2ccc(Cn3ccccc3=O)cc2)nc1C1COC1 [Compound 325]	38.6	
N=C(N)c1cnc(CNC(=O)c2cnn(Cc3ccc(CC4CC4)cc3)c2)nc1 [Compound 329]	42.4	
N=C(N)c1cnc(CNC(=O)c2cnn(Cc3ccc(CC4CC4)cc3)c2)cn1 [Compound 330]	855	
O=C(NCc1nccc(NC2COC2)c1F)c1cn(Cc2ccc(Cn3ccccc3=O)cc2)nc1C1COC1 [Compound 331]	> 1000	

Molecule	IC50 (plasma kallikrein (PKa); [1]) [nM]	further results
O=C(NCc1nccc(NC2COC2)c1F)c1cn(Cc2ccc(Cn3ccccc3=O)cc2)nc1N1CC(F)(F)C1 [Compound 332]	540	
O=C(NCc1nccc(N2CCCC2)c1F)c1cn(Cc2ccc(CC3CC3)cc2)nc1C1COC1 [Compound 333]	> 1000	
CN(C)c1ccnc(CNC(=O)c2cn(Cc3ccc(CC4CC4)cc3)nc2C2COC2)c1F [Compound 334]	421	
Cn1ccc2c(CNC(=O)c3cn(Cc4ccc(Cn5ccccc5=O)cc4)nc3C3COC3)nccc21 [Compound 336]	13.9	
O=C(NCc1nccc(C2CC2)c1F)c1cn(Cc2ccc(Cn3ccccc3=O)cc2)nc1C1COC1 [Compound 339]	31.6	
O=C(NCc1nccc(C2CC2)c1F)c1cn(Cc2ccc(Cn3ccccc3=O)cc2)nc1C1CC(F)(F)C1 [Compound 340]	48	
CN(C)c1ccnc(CNC(=O)c2cn(Cc3ccc(Cn4ccccc4=O)cc3)nc2C2CC(F)(F)C2)c1F [Compound 342]	6.29	
O=C(NCc1nccc(C2CC2)c1F)c1cn(Cc2ccc(CC3CC3)cc2)nc1C1COC1 [Compound 343]	> 1000	
CNc1ccnc(CNC(=O)c2cn(Cc3ccc(CC4CC4)cc3)nc2C2COC2)c1F [Compound 344]	237	
O=C(NCc1nccc(N2CCC2)c1F)c1cn(Cc2ccc(Cn3ccccc3=O)cc2)nc1C1COC1 [Compound 346]	5.64	
N/C(=N\O)c1ccc(CNC(=O)c2cnn(Cc3ccc(CC4CC4)cc3)c2)cc1 [Compound 348, (Z)-1-(4-(cyclopropylmethyl)benzyl)-N-(4-(N'-hydroxycarbamoyl)benzyl)-1H-pyrazole-4-carboxamide]		IC50 (plasma kallikrein (PKa); PKa IC50, plasma kallikrein enzyme assay, Pro-Phe-Arg-AMC substrate): 3.75 nM
O=C(NCc1nccc(-n2nccn2)c1F)c1cn(Cc2ccc(Cn3ccccc3=O)cc2)nc1C1COC1 [Compound 352]	90	
N=C(N)c1cnc(CNC(=O)c2cnn(Cc3ccc(CC4CC4)cc3)c2)c(F)c1 [Compound 358]	6.06	
N=C(N)c1ccc(CNC(=O)c2cnn(Cc3c(Cl)cc(OCC4CC4)cc3Cl)c2)cc1 [Compound 359]	3.15	
N=C(N)c1ccc(CNC(=O)c2cnn(Cc3ccc(OCC4CC4)cc3)c2)cc1 [Compound 360]	3.29	
Cn1cc(Cl)c2cnc(CNC(=O)c3cnn(Cc4ccc(Cn5ccccc5=O)cc4)c3)c(F)c21 [Compound 367]	43	
O=C(NCc1ncc2ccn(CCO)c2c1F)c1cnn(Cc2ccc(Cn3ccccc3=O)cc2)c1 [Compound 369, N-((7-fluoro-1-(2-hydroxyethyl)-1H-pyrrolo[3,2-c]pyridin-6-yl)methyl)-1-(4-((2-oxopyridin-1(2H)-yl)methyl]benzyl)-1H-pyrazole-4-carboxamide]	787	
Cn1ncc2cnc(CNC(=O)c3cnn(Cc4ccc(Cn5ccccc5=O)cc4)c3)c(F)c21 [Compound 376]	67	
N-((3-fluoro-4-methoxypyridin-2-yl)methyl)-3-(methoxymethyl)-1-(4-((2-oxo-2,3-dihydro-1H-pyrrolo[3,2-b]pyridin-1-yl)methyl]benzyl)-1H-pyrazole-4-carboxamide [Compound 113]	> 100	
